From ChEMBL document CHEMBL1201862, “PubChem BioAssay data set” (2004)
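Method: 48-hour compound exposure of cells in 96-well plates, five concentrations, linear interpolation of endpoints. Here, GI50 denotes the concentration required for 50% inhibition of growth.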 Calls of active or inactive are those of the source. Rule as the data show it: active = GI50 up to about 1.1 µM and inactive = higher.

What was measured:
Assay in all cases: DTP human tumour cell line panel, 48 h
[1] = test system: OVCAR-4
[2] = test system: PC-3
[3] = test system: TK-10
[4] = test system: BT-549
[5] = test system: NCI-H522
[6] = test system: HCT-116
[7] = test system: SR
[8] = test system: SK-MEL-2
[9] = test system: SF-295
[10] = test system: MDA-MB-435
[11] = test system: OVCAR-3
[12] = test system: NCI-H460
[13] = test system: RPMI-8226
[14] = test system: NCI-H226
[15] = test system: SW-620
[16] = test system: SN12C
[17] = test system: CCRF-CEM
[18] = test system: NCI-H23
[19] = test system: A549
[20] = test system: MDA-MB-231
[21] = test system: ACHN
[22] = test system: EKVX
[23] = test system: 786-0
[24] = test system: NCI/ADR-RES
[25] = test system: SF-539
[26] = test system: SF-268
[27] = test system: HT-29
[28] = test system: DU-145
[29] = test system: HCC 2998
[30] = test system: SK-OV-3
[31] = test system: SK-MEL-5
[32] = test system: Hs-578T
[33] = test system: SK-MEL-28
[34] = test system: OVCAR-5
[35] = test system: SNB-75
[36] = test system: HOP-62
[37] = test system: A498
[38] = test system: M14
[39] = test system: HL-60
[40] = test system: SNB-19
[41] = test system: OVCAR-8
[42] = test system: UACC-62
[43] = test system: T47D
[44] = test system: UACC-257
[45] = test system: HCT-15
[46] = test system: U-251
[47] = test system: UO-31
[48] = test system: CAKI-1
[49] = test system: MOLT-4
[50] = test system: IGROV-1
[51] = test system: COLO 205
[52] = test system: RXF 393
[53] = test system: KM12
[54] = test system: HOP-92
[55] = test system: MCF7
[56] = test system: K562
[57] = test system: LOX IMVI
[58] = test system: MDA-N
[59] = test system: Malme-3M

Measured: GI50

COc1ccc(CCNC(=O)CCc2ccccc2CO)cc1OC
inactive: [1] > 100 µM | [2] > 100 µM | [3] > 100 µM | [4] > 100 µM | [5] > 100 µM | [6] > 100 µM | [7] > 100 µM | [8] > 100 µM | [9] > 100 µM | [10] > 100 µM | [11] > 100 µM | [12] > 100 µM | [13] > 100 µM | [14] > 100 µM | [15] > 100 µM | [16] > 100 µM | [17] > 100 µM | [18] > 100 µM | [19] > 100 µM | [20] > 100 µM | [21] > 100 µM | [22] > 100 µM | [23] > 100 µM | [24] > 100 µM | [25] > 100 µM | [26] > 100 µM | [27] > 100 µM | [28] > 100 µM | [29] > 100 µM | [30] > 100 µM | [31] > 100 µM | [32] > 100 µM | [33] > 100 µM | [34] > 100 µM | [35] > 100 µM | [36] > 100 µM | [37] > 100 µM | [38] > 100 µM | [39] > 100 µM | [40] > 100 µM | [41] > 100 µM | [42] > 100 µM | [43] > 100 µM | [44] > 100 µM | [46] > 100 µM | [47] > 100 µM | [48] > 100 µM | [49] > 100 µM | [50] > 100 µM | [51] > 100 µM | [52] > 100 µM | [53] > 100 µM | [54] > 100 µM | [55] > 100 µM | [56] > 100 µM
> 100 µM: [45]

O/N=C1/C2CC3CC1(c1ccccc1)CC(/C3=N/O)/C2=N\O (stereo unspecified)
> 100 µM: [45]
inactive: [1] > 100 µM | [2] 95.9 µM | [3] > 100 µM | [4] > 100 µM | [5] > 100 µM | [6] > 100 µM | [7] > 100 µM | [8] > 100 µM | [9] > 100 µM | [57] > 100 µM | [10] > 100 µM | [11] > 100 µM | [12] > 100 µM | [13] > 100 µM | [58] > 100 µM | [14] > 100 µM | [15] > 100 µM | [16] > 100 µM | [17] > 100 µM | [18] > 100 µM | [19] > 100 µM | [20] > 100 µM | [21] > 100 µM | [22] > 100 µM | [23] > 100 µM | [25] > 100 µM | [27] > 100 µM | [28] > 100 µM | [29] > 100 µM | [30] > 100 µM | [31] > 100 µM | [32] > 100 µM | [33] > 100 µM | [34] > 100 µM | [35] > 100 µM | [36] > 100 µM | [37] > 100 µM | [38] > 100 µM | [39] > 100 µM | [40] > 100 µM | [41] > 100 µM | [42] > 100 µM | [43] > 100 µM | [59] > 100 µM | [44] > 100 µM | [46] > 100 µM | [47] > 100 µM | [48] > 100 µM | [49] > 100 µM | [51] > 100 µM | [52] > 100 µM | [53] > 100 µM | [55] > 100 µM | [56] > 100 µM
